Source: patent US20250282754A1, “BICYCLIC COMPOUNDS AND THEIR USE AS PEST CONTROL AGENTS” (Pl Industries Ltd., priority 2022, published 2025)

What was measured:
Format in all cases: in vivo
Myzus persicae = Myzus persicae leaf dip test (capsicum leaves, third instar nymphs); conditions: foliar, dead and moribund third instar nymphs 72 h after release, compared to untreated controls, read-out: percent mortality
Experimental: The leaf dip method was used for testing, wherein the required quantity of the compound was weighed and dissolved in a tube containing a solvent solution. The tube was put on a vortex at 2000 rpm for proper mixing and then diluted with a 0.01% Triton-X solution to the desired test concentration. Capsicum leaves were dipped in the compound solution for 10 seconds, shade dried for 20 min and then placed, with the abaxial side of the leaf up, in single cells of a bio-assay tray containing 4 ml of a solidified 1% agar-agar solution. Known numbers of third instar nymphs of Myzus persicae, collected in petri plates, were released into the cell with the treated leaf and the cell was covered with a perforated lid for better aeration. The trays were kept in a plant growth chamber at a temperature of 25° C. and a relative humidity of 70%. Observations on dead, moribund and alive nymphs were recorded 72 h after the release. Percent mortality was calculated by combining dead and moribund nymphs and comparing the result with the one of the untreated controls. The compounds

Bemisia tabaci = Bemisia tabaci leaf dip test (brinjal leaves, whitefly adults); conditions: foliar, dead and moribund whitefly adults 72 h after release, compared to untreated controls, read-out: percent mortality
How it was run: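 Brinjal leaves were dipped 10 s in compound diluted in 0.01% Triton-X, dried, and placed on agar, then exposed to freshly emerged whitefly adults at 25° C, 70% RH. Dead plus moribund adults were counted at 72 h, and percent mortality was calculated relative to untreated controls.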

Nilaparvata lugens = Nilaparvata lugens seedling dip test (paddy seedlings, third instar nymphs); conditions: dead and moribund third instar nymphs 72 h after release, compared to untreated controls, read-out: percent mortality
How it was run: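 Paddy seedlings dipped 10 s in compound diluted with 0.01% Triton-X, shade dried, then infested with 15 third-instar nymphs at 25 °C, 75% RH. Mortality (dead plus moribund) scored at 72 h relative to untreated controls.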

Measured: mortality at 300 ppm

CCOc1nn(-c2ccc3nn(-c4cccnc4)cc3c2)c(=O)n1Cc1ccc(F)cc1 [Compound 337, 5-ethoxy-4-(4-fluorobenzyl)-2-(2-(pyridin-3-yl)-2H-indazol-5-yl)-2,4-dihydro-3H-1,2,4-triazol-3-one]
≥ 70%: all assays above

CCS(=O)(=Nc1cccc2nn(-c3cccnc3)cc12)C(C)C (stereo not drawn) [Compound 71]
≥ 70%: all assays above

CCS(=O)(=Nc1ccc2nn(-c3cccnc3)cc2c1)C(C)C (stereo not drawn) [Compound 29]
≥ 70%: all assays above

CC(C)S(=O)(=Nc1ccc2nn(-c3cccnc3)cc2c1)C(C)C [Compound 28]
≥ 70%: all assays above

CCN=S(=O)(c1ccc2nn(-c3cncc(F)c3)cc2c1)C(C)C (stereo not drawn) [Compound 397]
≥ 70%: all assays above

CC(=O)N=S(=O)(c1ccc2nn(-c3cccnc3)cc2c1)C(C)C (stereo not drawn) [Compound 389]
≥ 70%: all assays above
